Target: T1, HCV1b NS5B polymerase delta 21 (Hepatitis C virus genotype 1b, UniProt P26663)
T1 construct: purified HCV1b NS5B polymerase delta 21
Assay: RNA-dependent RNA HCV NS5B (polymerase) assay and IC50 determination
Type: biochemical
Details: not given
Description: Example 212—RNA-Dependent RNA HCV NS5B (Polymerase) Assay and IC50 Determination
In vitro RNA-dependent RNA polymerase activity was determined in a reaction mixture (50 μL) containing 50 mM Tris-HCl, pH 7.5, 5 mM MgCl2, 1 mM dithiothreitol, 0.5% Triton® X-100, 10 μM of UTP, 0.1-0.5 μCi of α-^32P UTP (Perkin Elmer Life Sciences), 1 μg of polyA:U16 (Midland Oligo), and 0.6 μg of purified HCV1b NS5B polymerase delta 21. Different concentrations of compounds were added to the reaction mixtures. The reaction was carried out at RT (23° C.) for 60 min and then stopped by the addition of 100 μL of 50 mM EDTA. The reaction mixtures were filtered through either a DE81 membrane or a positively charged nylon membrane, and the membranes were then extensively washed with 30 mM sodium citrate, pH 7.0 and 300 mM NaCl. The radiolabeled RNA products were quantitated using a Storm™ PhosphorImager™ (GE life Sciences). IC50 values were calculated using GraFit 6 and GraphPad Prism 5 from triplicate assays.

T1 sequence (P26663 2420-2989): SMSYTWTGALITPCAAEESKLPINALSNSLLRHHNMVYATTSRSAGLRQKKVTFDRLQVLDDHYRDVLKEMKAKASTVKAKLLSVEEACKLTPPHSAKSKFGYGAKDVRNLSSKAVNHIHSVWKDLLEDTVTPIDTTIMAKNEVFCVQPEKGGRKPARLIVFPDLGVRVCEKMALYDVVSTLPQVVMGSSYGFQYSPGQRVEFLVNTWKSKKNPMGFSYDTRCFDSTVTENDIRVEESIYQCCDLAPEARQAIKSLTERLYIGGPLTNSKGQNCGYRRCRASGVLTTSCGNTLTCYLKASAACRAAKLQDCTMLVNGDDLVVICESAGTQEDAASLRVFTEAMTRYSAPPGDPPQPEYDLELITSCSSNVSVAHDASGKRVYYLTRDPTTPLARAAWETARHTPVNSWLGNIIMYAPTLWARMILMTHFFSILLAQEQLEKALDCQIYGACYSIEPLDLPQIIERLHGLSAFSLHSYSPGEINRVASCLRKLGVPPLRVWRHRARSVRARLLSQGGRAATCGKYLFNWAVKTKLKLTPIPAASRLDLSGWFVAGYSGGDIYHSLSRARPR

SMILES	IC50 [nM]
CC1CCC(C2=C(c3cc(-c4ccc(NC(=O)c5cscn5)cc4)sc3C(=O)O)CCN(Cc3cnn(C)c3)C2)CC1 (centres unmarked) [Example 186, 3-(1-((1-methyl-1H-pyrazol-4-yl)methyl)-5-(4-methylcyclohexyl)-1,2,3,6-tetrahydropyridin-4-yl)-5-(4-(thiazole-4-carboxamido)phenyl)thiophene-2-carboxylic acid]	< 3000
COc1cc(-c2cc(C3=C(C4CCC(C)CC4)CN(C)CC3)c(C(=O)O)s2)ccc1NC(=O)c1cscn1 (centres unmarked) [Example 179, 5-(3-methoxy-4-(thiazole-4-carboxamido)phenyl)-3-(1-methyl-5-(4-methylcyclohexyl)-1,2,3,6-tetrahydropyridin-4-yl)thiophene-2-carboxylic acid]	< 3000
CN1CCC(c2cc(C#CC(C)(C)C)sc2C(=O)O)=C(C2CCCCC2)C1 [Example 211, 3-(5-Cyclohexyl-1-methyl-1,2,3,6-tetrahydro-pyridin-4-yl)-5-(3,3-dimethyl-but-1-ynyl)-thiophene-2-carboxylic acid]	< 3000
Cc1cc(-c2cc(C3=C(C4CCC(C)CC4)CCN(Cc4cnn(C)c4)C3)c(C(=O)O)s2)ccc1NC(=O)c1cscn1 (centres unmarked) [Example 199, 3-(1-((1-methyl-1H-pyrazol-4-yl)methyl)-4-(4-methylcyclohexyl)-1,2,5,6-tetrahydropyridin-3-yl)-5-(3-methyl-4-(thiazole-4-carboxamido)phenyl)thiophene-2-carboxylic acid]	< 3000

Test system: HCV1b replicon
Assay: HCV replicon assay (Huh-7 cell line with HCV1b replicon containing luciferase reporter) and EC50 determination
Type: cell-based
Details: Hepatitis C virus; Table 1; Huh-7 HCV1b replicon luciferase reporter, 72 hr, triplicate
Description: Example 213—HCV Replicon Assay and EC50 Determination
The antiviral activity of compounds against hepatitis C virus was determined by a hepatitis C virus replicon reporter cell line developed by Bartenschlager (Lohmann et al., Science 1999, 285:110-113; Bartenschlager et al., Antiviral Res 2003, 60:91-102). This cell-based assay utilized a liver cell carcinoma (Huh-7) cell line stably transformed with an HCV1b replicon containing a luciferase reporter gene. Varied concentrations of compounds were added to the reporter cell line, and further incubated at 37° C. for 72 hr in DMEM supplemented with 10% FCS. The inhibitory effects of experimental compounds or the reference compound, interferon alpha (INFα), on HCV replication were measured by luciferase activity using the Britelite™ plus luminescence reporter gene kit (Perkin Elmer, Shelton, Conn.). The Britelite plus reagent was added to the 96-well plates containing the HCV reporter cells, and luminescence was measured within 15 min using a Wallac 1450 Microbeta® Trilux liquid scintillation counter. EC50 values were calculated using GraFit 6 and GraphPad Prism 5 from triplicate HCV replicon assays.

SMILES	EC50 [nM]
Cc1cc(-c2cc(C3=C(C4CCC(C)CC4)CCN(CCO)C3)c(C(=O)O)s2)ccc1NC(=O)c1cscn1 (centres unmarked) [Example 197, 3-(1-(2-hydroxyethyl)-4-(4-methylcyclohexyl)-1,2,5,6-tetrahydropyridin-3-yl)-5-(3-methyl-4-(thiazole-4-carboxamido)phenyl)thiophene-2-carboxylic acid]	< 3000
Cc1cc(-c2cc(C3=C(C4CCC(C)CC4)CCN(C)C3)c(C(=O)O)s2)ccc1NC(=O)c1cscn1 (centres unmarked) [Example 196, 3-(1-methyl-4-(4-methylcyclohexyl)-1,2,5,6-tetrahydropyridin-3-yl)-5-(3-methyl-4-(thiazole-4-carboxamido)phenyl)thiophene-2-carboxylic acid]	< 3000
Cc1cc(-c2cc(C3=C(C4CCC(C)CC4)CN(C)CC3)c(C(=O)O)s2)ccc1NC(=O)c1cscn1 (centres unmarked) [Example 178, 5-(3-methyl-4-(thiazole-4-carboxamido)phenyl)-3-(1-methyl-5-(4-methylcyclohexyl)-1,2,3,6-tetrahydropyridin-4-yl)thiophene-2-carboxylic acid]	< 3000
CC1CCC(C2=C(c3cc(-c4ccc(NC(=O)c5cscn5)c(C(F)(F)F)c4)sc3C(=O)O)CCN(C)C2)CC1 (centres unmarked) [Example 183, 3-(1-methyl-5-(4-methylcyclohexyl)-1,2,3,6-tetrahydropyridin-4-yl)-5-(4-(thiazole-4-carboxamido)-3-(trifluoromethyl)phenyl)thiophene-2-carboxylic acid]	< 3000
CC1CCC(C2=C(c3cc(-c4ccc(-c5cc6n(C)c(=O)ccn6n5)cc4)sc3C(=O)O)CCN(C)C2)CC1 (centres unmarked) [Example 185, 3-(1-methyl-5-(4-methylcyclohexyl)-1,2,3,6-tetrahydropyridin-4-yl)-5-(4-(4-methyl-5-oxo-4,5-dihydropyrazolo[1,5-a]pyrimidin-2-yl)phenyl)thiophene-2-carboxylic acid]	< 3000
CC1CCC(C2=C(c3cc(-c4ccc(NC(=O)c5cscn5)nc4)sc3C(=O)O)CCN(C)C2)CC1 (centres unmarked) [Example 204, 3-(1-methyl-5-(4-methylcyclohexyl)-1,2,3,6-tetrahydropyridin-4-yl)-5-(6-(thiazole-4-carboxamido)pyridin-3-yl)thiophene-2-carboxylic acid]	< 3000
CN1CCC(c2cc(-c3ccc(NC(=O)c4cscn4)cc3)sc2C(=O)O)=C(c2ccc(Cl)cc2Cl)C1 [Example 201, 3-(5-(2,4-dichlorophenyl)-1-methyl-1,2,3,6-tetrahydropyridin-4-yl)-5-(4-(thiazole-4-carboxamido)phenyl)thiophene-2-carboxylic acid]	< 3000
CC1CCC(C2=C(c3cc(-c4ccc(NC(=O)c5cscn5)c(C#N)c4)sc3C(=O)O)CCN(C)C2)CC1 (centres unmarked) [Example 180, 5-(3-cyano-4-(thiazole-4-carboxamido)phenyl)-3-(1-methyl-5-(4-methylcyclohexyl)-1,2,3,6-tetrahydropyridin-4-yl)thiophene-2-carboxylic acid]	< 3000
Cc1ccc(C2=C(c3cc(-c4ccc(NC(=O)c5cscn5)cc4)sc3C(=O)O)CCN(C)C2)cc1 [Example 202, 3-(1-methyl-5-(p-tolyl)-1,2,3,6-tetrahydropyridin-4-yl)-5-(4-(thiazole-4-carboxamido)phenyl)thiophene-2-carboxylic acid]	< 3000

Same assay, conditions: Hepatitis C virus; Table 2; Huh-7 HCV1b replicon luciferase reporter, 72 hr, triplicate

SMILES	EC50 [nM]
CC1CCC(C2=C(c3cc(-c4ccc(-c5cc6ncccn6n5)cc4)sc3C(=O)O)CN(CCO)CC2)CC1 (centres unmarked) [Example 191, 3-(1-(2-hydroxyethyl)-4-(4-methylcyclohexyl)-1,2,5,6-tetrahydropyridin-3-yl)-5-(4-(pyrazolo[1,5-a]pyrimidin-2-yl)phenyl)thiophene-2-carboxylic acid]	< 3000
CC1CCC(C2=C(c3cc(-c4ccc(-c5cc6ncccn6n5)cc4)sc3C(=O)O)CN(Cc3cnn(C)c3)CC2)CC1 (centres unmarked) [Example 194, 3-(1-((1-methyl-1H-pyrazol-4-yl)methyl)-4-(4-methylcyclohexyl)-1,2,5,6-tetrahydropyridin-3-yl)-5-(4-(pyrazolo[1,5-a]pyrimidin-2-yl)phenyl)thiophene-2-carboxylic acid]	< 3000
CC1CCC(C2=C(c3cc(-c4ccc(-c5cc6ncccn6n5)cc4)sc3C(=O)O)CN(CC(O)CO)CC2)CC1 (centres unmarked) [Example 192, 3-(1-(2,3-dihydroxypropyl)-4-(4-methylcyclohexyl)-1,2,5,6-tetrahydropyridin-3-yl)-5-(4-(pyrazolo[1,5-a]pyrimidin-2-yl)phenyl)thiophene-2-carboxylic acid]	< 3000
CC1CCC(C2=C(c3cc(-c4ccc(NC(=O)c5cscn5)cc4)sc3C(=O)O)CN(CCO)CC2)CC1 (centres unmarked) [Example 188, 3-(1-(2-hydroxyethyl)-4-(4-methylcyclohexyl)-1,2,5,6-tetrahydropyridin-3-yl)-5-(4-(thiazole-4-carboxamido)phenyl)thiophene-2-carboxylic acid]	< 3000
CN1CCC(c2cc(-c3ccc(NC(=O)c4cscn4)cc3)sc2C(=O)O)=C(C2CCCCC2)C1 [Example 205, 3-(5-Cyclohexyl-1-methyl-1,2,3,6-tetrahydro-pyridin-4-yl)-5-{4-[(thiazole-4-carbonyl)-amino]-phenyl}-thiophene-2-carboxylic acid]	< 3000
Cc1nn(C)cc1CN1CCC(C2CCC(C)CC2)=C(c2cc(-c3ccc(NC(=O)c4cscn4)cc3)sc2C(=O)O)C1 (centres unmarked) [Example 195, 3-(1-((1,3-dimethyl-1H-pyrazol-4-yl)methyl)-4-(4-methylcyclohexyl)-1,2,5,6-tetrahydropyridin-3-yl)-5-(4-(thiazole-4-carboxamido)phenyl)thiophene-2-carboxylic acid]	< 3000
CC1CCC(C2=C(c3cc(-c4ccc(NC(=O)c5cscn5)cc4)sc3C(=O)O)CN(Cc3cnn(C)c3)CC2)CC1 (centres unmarked) [Example 193, 3-(1-((1-methyl-1H-pyrazol-4-yl)methyl)-4-(4-methylcyclohexyl)-1,2,5,6-tetrahydropyridin-3-yl)-5-(4-(thiazole-4-carboxamido)phenyl)thiophene-2-carboxylic acid]	< 3000

Reference: patent US10426762B2, “Inhibitors of hepatitis C virus polymerase” (COCRYSTAL DISCOVERY, INC., priority 2012, dated 2019)
